Patent US12721856B2, “Psilocybin compositions, methods of making and methods of using the same” (priority 2021, dated 2026)
Converted amounts (≈) assume the structure as drawn.

Assay: Solubility in water
Assay type: physicochemical
Excerpt: The psilocybin in the form Polymorph A or A′ has the general properties illustrated in Table 5 below: […]

**Q.** For `CN(C)CCc1c[nH]c2cccc(OP(=O)(O)O)c12` [Psilocybin], which solubility is on record?
**A.** ~15 mg/mL (≈ 52.8 mM)
